Results reported in ChEMBL document CHEMBL1201862, “PubChem BioAssay data set” (2004).
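Dose response: 5 concentrations. Exposure: 48 h. Format: 96-well plates. Endpoint: linear interpolation; highest concentration if not reached. Abbreviation: GI50, concentration required for 50% inhibition of growth.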 Active and inactive are the calls of the source. Rule as the data show it: active = GI50 up to about 1.1 µM and inactive = higher.

Key:
Test in all cases: NCI anticancer screen, dose series, 48 h
SNB-75 = tested on: SNB-75
LOX IMVI = tested on: LOX IMVI
COLO 205 = tested on: COLO 205
DMS-114 = tested on: DMS-114
T47D = tested on: T47D
SF-268 = tested on: SF-268
MDA-N = tested on: MDA-N
UACC-62 = tested on: UACC-62
KM12 = tested on: KM12
NCI-H460 = tested on: NCI-H460
OVCAR-4 = tested on: OVCAR-4
HT-29 = tested on: HT-29
HOP-62 = tested on: HOP-62
DLD-1 = tested on: DLD-1
UO-31 = tested on: UO-31
NCI-H522 = tested on: NCI-H522
RXF 393 = tested on: RXF 393
TK-10 = tested on: TK-10
BT-549 = tested on: BT-549
MDA-MB-435 = tested on: MDA-MB-435
HOP-92 = tested on: HOP-92
HCT-15 = tested on: HCT-15
RPMI-8226 = tested on: RPMI-8226
SF-295 = tested on: SF-295
SK-MEL-2 = tested on: SK-MEL-2
SW-620 = tested on: SW-620
MDA-MB-231 = tested on: MDA-MB-231
PC-3 = tested on: PC-3
XF498 = tested on: XF498
HCT-116 = tested on: HCT-116
CCRF-CEM = tested on: CCRF-CEM
SR = tested on: SR
M19-MEL = tested on: M19-MEL
M14 = tested on: M14
EKVX = tested on: EKVX
OVCAR-5 = tested on: OVCAR-5
SNB-78 = tested on: SNB-78
NCI/ADR-RES = tested on: NCI/ADR-RES
IGROV-1 = tested on: IGROV-1
Malme-3M = tested on: Malme-3M
DMS-273 = tested on: DMS-273
U-251 = tested on: U-251
DU-145 = tested on: DU-145
SK-OV-3 = tested on: SK-OV-3
KM-20L2 = tested on: KM-20L2
SK-MEL-28 = tested on: SK-MEL-28
K562 = tested on: K562
CAKI-1 = tested on: CAKI-1
A549 = tested on: A549
SK-MEL-5 = tested on: SK-MEL-5
786-0 = tested on: 786-0
SF-539 = tested on: SF-539
NCI-H226 = tested on: NCI-H226
UACC-257 = tested on: UACC-257
MOLT-4 = tested on: MOLT-4
OVCAR-8 = tested on: OVCAR-8
HCC 2998 = tested on: HCC 2998
Hs-578T = tested on: Hs-578T
NCI-H23 = tested on: NCI-H23
HOP-18 = tested on: HOP-18
HL-60 = tested on: HL-60
SNB-19 = tested on: SNB-19
MCF7 = tested on: MCF7
A498 = tested on: A498
SN12C = tested on: SN12C
OVCAR-3 = tested on: OVCAR-3
ACHN = tested on: ACHN
LXFL 529 = tested on: LXFL 529

Nc1ccn(C2CCC(CO)O2)c(=O)n1 (configuration not stated)
GI50 (SNB-75): > 100 µM (inactive) | GI50 (LOX IMVI): > 100 µM (inactive) | GI50 (COLO 205): > 100 µM (inactive) | GI50 (DMS-114): > 100 µM (inactive) | GI50 (T47D): > 1000 µM (inactive) | GI50 (SF-268): > 62.8 µM (inactive) | GI50 (MDA-N): > 1000 µM (inactive) | GI50 (UACC-62): > 100 µM (inactive) | GI50 (KM12): > 100 µM (inactive) | GI50 (NCI-H460): > 100 µM (inactive) | GI50 (OVCAR-4): > 83 µM (inactive) | GI50 (HT-29): > 100 µM (inactive) | GI50 (HOP-62): > 100 µM (inactive) | GI50 (DLD-1): > 100 µM (inactive) | GI50 (UO-31): 836 µM (inactive) | GI50 (NCI-H522): 656 µM (inactive) | GI50 (RXF 393): > 100 µM (inactive) | GI50 (TK-10): > 1000 µM (inactive) | GI50 (BT-549): > 1000 µM (inactive) | GI50 (MDA-MB-435): > 1000 µM (inactive) | GI50 (HOP-92): > 100 µM (inactive) | GI50 (HCT-15): > 100 µM | GI50 (RPMI-8226): > 100 µM (inactive) | GI50 (SF-295): > 100 µM (inactive) | GI50 (SK-MEL-2): > 100 µM (inactive) | GI50 (SW-620): > 94.8 µM (inactive) | GI50 (MDA-MB-231): > 1000 µM (inactive) | GI50 (PC-3): > 1000 µM (inactive) | GI50 (XF498): > 100 µM (inactive) | GI50 (HCT-116): > 100 µM (inactive) | GI50 (CCRF-CEM): 46.5 µM (inactive) | GI50 (SR): 367 µM (inactive) | GI50 (M19-MEL): > 100 µM (inactive) | GI50 (M14): > 1000 µM (inactive) | GI50 (EKVX): > 100 µM (inactive) | GI50 (OVCAR-5): > 100 µM (inactive) | GI50 (SNB-78): > 65.6 µM (inactive) | GI50 (NCI/ADR-RES): 159 µM (inactive) | GI50 (IGROV-1): > 100 µM (inactive) | GI50 (Malme-3M): > 100 µM (inactive) | GI50 (DMS-273): > 100 µM (inactive) | GI50 (U-251): > 100 µM (inactive) | GI50 (DU-145): 719 µM (inactive) | GI50 (SK-OV-3): > 100 µM (inactive) | GI50 (KM-20L2): > 100 µM (inactive) | GI50 (SK-MEL-28): > 100 µM (inactive) | GI50 (K562): > 100 µM (inactive) | GI50 (CAKI-1): > 100 µM (inactive) | GI50 (A549): > 100 µM (inactive) | GI50 (SK-MEL-5): > 100 µM (inactive) | GI50 (786-0): > 1000 µM (inactive) | GI50 (SF-539): > 100 µM (inactive) | GI50 (NCI-H226): > 93.5 µM (inactive) | GI50 (UACC-257): > 100 µM (inactive) | GI50 (MOLT-4): 63.8 µM (inactive) | GI50 (OVCAR-8): 156 µM (inactive) | GI50 (HCC 2998): > 100 µM (inactive) | GI50 (Hs-578T): > 1000 µM (inactive) | GI50 (NCI-H23): > 100 µM (inactive) | GI50 (HOP-18): 98.9 µM (inactive) | GI50 (HL-60): 698 µM (inactive) | GI50 (SNB-19): > 100 µM (inactive) | GI50 (MCF7): 99.8 µM (inactive) | GI50 (A498): > 91.8 µM (inactive) | GI50 (SN12C): > 100 µM (inactive) | GI50 (OVCAR-3): > 100 µM (inactive) | GI50 (ACHN): 785 µM (inactive)

CC(=O)c1c2c(cc3c1CC1(C3)Cc3cc4c(c(C(=O)O)c3C1)CCC4)CCC2 (configuration not stated)
GI50 (SNB-75): 69.8 µM (inactive) | GI50 (LOX IMVI): 32.4 µM (inactive) | GI50 (LXFL 529): 40.7 µM (inactive) | GI50 (COLO 205): 24.7 µM (inactive) | GI50 (DMS-114): 36.3 µM (inactive) | GI50 (SF-268): 36.8 µM (inactive) | GI50 (UACC-62): 28.6 µM (inactive) | GI50 (KM12): 44.2 µM (inactive) | GI50 (NCI-H460): 32 µM (inactive) | GI50 (OVCAR-4): 49.1 µM (inactive) | GI50 (HT-29): 44.5 µM (inactive) | GI50 (HOP-62): 36.5 µM (inactive) | GI50 (DLD-1): 37.1 µM (inactive) | GI50 (UO-31): 26.9 µM (inactive) | GI50 (NCI-H522): 15.9 µM (inactive) | GI50 (RXF 393): 45.5 µM (inactive) | GI50 (TK-10): 42.3 µM (inactive) | GI50 (HOP-92): 33.2 µM (inactive) | GI50 (SF-295): 38.9 µM (inactive) | GI50 (SW-620): 48.6 µM (inactive) | GI50 (XF498): 57.1 µM (inactive) | GI50 (HCT-116): 24.9 µM (inactive) | GI50 (CCRF-CEM): 27.7 µM (inactive) | GI50 (SR): 25.2 µM (inactive) | GI50 (M19-MEL): 37 µM (inactive) | GI50 (M14): 41.2 µM (inactive) | GI50 (OVCAR-5): > 100 µM (inactive) | GI50 (SNB-78): 55.6 µM (inactive) | GI50 (IGROV-1): 50.7 µM (inactive) | GI50 (Malme-3M): 29.4 µM (inactive) | GI50 (DMS-273): 35.6 µM (inactive) | GI50 (U-251): 26.2 µM (inactive) | GI50 (SK-MEL-28): 44.5 µM (inactive) | GI50 (K562): 32.6 µM (inactive) | GI50 (CAKI-1): 36.9 µM (inactive) | GI50 (A549): 30.8 µM (inactive) | GI50 (SK-MEL-5): 35.7 µM (inactive) | GI50 (786-0): 47.2 µM (inactive) | GI50 (SF-539): 19.2 µM (inactive) | GI50 (UACC-257): 45 µM (inactive) | GI50 (MOLT-4): 25.9 µM (inactive) | GI50 (OVCAR-8): 41 µM (inactive) | GI50 (HCC 2998): 37.8 µM (inactive) | GI50 (NCI-H23): 26.2 µM (inactive) | GI50 (HOP-18): 79.8 µM (inactive) | GI50 (HL-60): 16.7 µM (inactive) | GI50 (SNB-19): 45.3 µM (inactive) | GI50 (SN12C): 31.4 µM (inactive) | GI50 (OVCAR-3): 19.7 µM (inactive) | GI50 (ACHN): 35.9 µM (inactive)
